How the values were obtained:
[1] = system: PARP activity; conditions: PARP activity stimulated by DNA damage caused by hydrogen peroxide, various cell lines, cited from earlier work
[2] = system: TP53 null sarcoma (SA9003); assay: Tumor growth inhibition, TP53 null sarcoma model; assay type: in vivo, mouse; conditions: niraparib orally once daily, antibody intraperitoneally twice weekly
Excerpt: (§1) A panel of 14 syngeneic or humanized xenograft models representing BRCA-proficient (wild-type) and BRCA-deficient (mutant) cancers derived from breast, lung, ovary, skin, sarcoma, bladder and colon tumors was established. The panel included the following genetically engineered mouse tumor models: 1) KrasG12D and PTEN null bladder (BL6078), 2) TP53 null sarcoma (SA9003), 3) MMTV-LPA1 breast (LPA-T22), 4) BRCA1 mutant breast (MDA-MB-436; also referred to as MM-436), 5) APC^Min heterozygous mutant skin (SK6005), and 6) BRCA1−/−, TP53−/−, KrasG12D ovarian (BRKras) models. While the bladder syngeneic model was BRCA1 wild-type, the sarcoma model harbored BRCA1 A122E and S123X heterozygous mutations. Specifically, mice were administered treatments after tumors reached 50-150 mm^3. […] The suboptimal dose administered for specific tumor models was as follows: 35 mg/kg daily for 5 consecutive days per week (QD×5/week) for the BR1126 tumor model, 35 mg/kg (QD×5/week) for the MDA-MB-436 tumor model, 30 mg/kg for the BRKras tumor model, and 25 mg/kg daily for the SK6005 tumor model. The anti-PD-1 antibody (RMP1-14/2C4) or the anti-PD-L1 antibody (10F.9G2) was administered twice weekly intraperitoneally at 10 mg/kg dose unless otherwise noted. […] Tumor growth was monitored twice per week.

[3] = system: selected Ewing's sarcoma, ALL, NSCLC and SCLC cell lines, tumor cell lines carrying homozygous inactivation of the ATM gene; conditions: cited from earlier work
[4] = system: MDA-MB-436 cells
Excerpt: (§2) The cells were subsequently analyzed for expression of Stimulator of Interferon Genes (STING) pathway proteins via Western blotting.

[5] = system: DLD1 BRCA2−/− cells; conditions: 300 nM for 24 or 48 hours
Excerpt: as §2

[6] = system: cancer cell lines that have been silenced for BRCA-1 or BRCA-2, or carry BRCA-1 or BRCA-2 mutations; conditions: cited from earlier work
[7] = system: normal human cells; conditions: cited from earlier work
[8] = system: KrasG12D and PTEN null bladder (BL6078); assay: Tumor growth inhibition, Kras G12D and PTEN null bladder model; conditions: mouse, in vivo
Excerpt: as §1

[9] = system: MDA-MB-436, CAPAN-1, GRANTA-519, OVCAR3, HT29, DLD-1, patient derived Ewing's sarcoma and TNBC xenograft models; conditions: xenograft models in mice; cited from earlier work
[10] = system: MMTV-LPA1 breast (LPA-T22); assay: Tumor growth inhibition, syngeneic MMTV-LPA1 breast model; assay type: in vivo, mouse; conditions: niraparib orally once daily, antibody intraperitoneally twice weekly
Excerpt: as §1

[11] = system: non-small-cell lung cancer, melanoma, and renal-cell cancer; conditions: Phase I clinical trial; cited from earlier work

| Compound | IC50 ([1]; read-out: IC50 of PARP activity in cell lines) | IC90 ([1]; read-out: inhibitory concentration at 90% of control (IC90) of PARP activity in cell lines) | tumor growth inhibition (TGI) [2] | cytotoxicity [3] | mRNA expression of type-I interferon (IFNB1) ([4]; 300 nM for 24 or 48 hours) | expression of STING pathway proteins (p-STING, STING, p-TBK1, TBK1, p-NF-κB p65, NF-κB p65) ([4]; 1 μM for 48 hours, Western blotting) | mRNA expression of type-I interferon (IFNB1 or IFNA1) [5] | consequence on cell cycle ([6]; BRCA-defective cells) | anti-proliferative activity ([6]; compared to wild type counterparts) | activity on normal human cells [7] | response to monotherapy [8] | antitumor activity in vivo [9] | tumor growth inhibition (TGI) [10] | clinical response [11] |
| --- | --- | --- | --- | --- | --- | --- | --- | --- | --- | --- | --- | --- | --- | --- |
| NC(=O)c1cccc2cn(-c3ccc([C@@H]4CCCNC4)cc3)nc12 [Niraparib, (3 S)-3-[4-{7-(aminocarbonyl)-2H-indazol-2-yl}phenyl]piperidine] | ~4 nM | ~50 nM | 1% | selectively cytotoxic | detected | expression of STING pathway proteins | detected | cell cycle arrest in G2/M followed by apoptosis | selective anti-proliferative activity | weak activity | neither responsive | strong antitumor activity | 45% |  |
| nivolumab: anti-PD-1 monoclonal antibody (Human IgG4) |  |  |  |  |  |  |  |  |  |  |  |  |  | complete or partial responses |

Reference: patent US11661453B2 (Tesaro, Inc., priority 2017, dated 2023)
